In assay [1] the target is T1, Gag-Pol polyprotein (Human immunodeficiency virus type 1 group M subtype B (isolate HXB2), UniProt P04585). As to the kind of experiment: ST Inhibitory Assay. The method, then:
Insertion of two newly processed 3'-viral DNA ends into the host-cell chromosome. All biological assays were performed essentially as previously described [Dayam et al., J. Med. Chem., 51:1136-1144].

Assay [2] addresses T1, Gag-Pol polyprotein. As to the kind of experiment: 3'-P Inhibitory Assay. The method, then: Cleavage of a dinucleotide from each 3'-end of viral cDNA. All biological assays were performed essentially as previously described [Dayam et al., J. Med. Chem., 51:1136-1144].

Molecules are shown by their SMILES.

We go through 27 compounds from BindingDB's records for doi:10.3109/14756366.2011.604851 (Shandong University, 2012).

As for `CCOc1ccc(NS(=O)(=O)c2ccc(NC(=O)/C=C/c3ccc(O)c(O)c3)cc2)cc1` [(E)-3-(3,4-Dihydroxyphenyl)-N-(4-(4-Ethoxylphenylsulfamoyl)phenyl)acrylamide (11j)], the values for the IC50 on Gag-Pol polyprotein [1] and against Gag-Pol polyprotein [2] were 9 µM and 35 µM, respectively.
On to `O=C(/C=C/c1ccc(O)c(O)c1)Nc1ccc(S(=O)(=O)Nc2ccc(F)c(Br)c2)cc1` [(E)-3-(3,4-Dihydroxyphenyl)-N-(4-(3-bromo-4-fluorophenylsulfamoyl)phenyl)acrylamide (11u)], for which the IC50 amounted to 4 µM against Gag-Pol polyprotein [1] and 8 µM at Gag-Pol polyprotein [2].
On to `O=C(/C=C/c1ccc(O)c(O)c1)Nc1ccc(S(=O)(=O)Nc2ccc(Br)cc2)cc1` [(E)-3-(3,4-Dihydroxyphenyl)-N-(4-(4-Bromophenylsulfamoyl)phenyl)acrylamide (11e)], for which the IC50 is 8 µM against Gag-Pol polyprotein [1] and 35 µM at Gag-Pol polyprotein [2].
For `O=C(Nc1ccc(S(=O)(=O)Nc2ccc(F)cc2)cc1)c1cc(O)c(O)c(O)c1` [N-(4-(4-Fluorophenylsulfamoyl)phenyl)galloylamide (9a)], the IC50 on Gag-Pol polyprotein [1] came out at 0.9 µM; at Gag-Pol polyprotein [2], 7 µM.
Regarding `O=C(/C=C/c1ccc(O)c(O)c1)Nc1ccc(S(=O)(=O)Nc2ccc(Cl)c(Cl)c2)cc1` [(E)-3-(3,4-Dihydroxyphenyl)-N-(4-(3,4-Dichlorophenylsulfamoyl)phenyl)acrylamide (11h)], the IC50 on Gag-Pol polyprotein [1] came to 6 µM; against Gag-Pol polyprotein [2], 17 µM.
In the same order, the values of `O=C(Nc1ccc(S(=O)(=O)Nc2cccc(Cl)c2F)cc1)c1cc(O)c(O)c(O)c1` [N-(4-(3-chloro-2-fluorophenylsulfamoyl)phenyl)galloylamide (9l)] are 0.8 µM and 1.3 µM.
With `O=C(Nc1ccc(S(=O)(=O)NCc2ccc(F)cc2)cc1)c1cc(O)c(O)c(O)c1` [N-(4-(4-Fluorobenzylsulfamoyl)phenyl)galloylamide (9d)], the IC50 came to 2 µM at Gag-Pol polyprotein [1] and 7 µM against Gag-Pol polyprotein [2].
Turning to `CCOc1ccc(NS(=O)(=O)c2ccc(NC(=O)c3cc(O)c(O)c(O)c3)cc2)cc1` [N-(4-(4-Ethoxylphenylsulfamoyl)phenyl)galloylamide (9j)], the IC50 on Gag-Pol polyprotein [1] was determined as 1.3 µM; against Gag-Pol polyprotein [2] it was 6 µM.
As to `Cc1cc(C)cc(NS(=O)(=O)c2ccc(NC(=O)c3cc(O)c(O)c(O)c3)cc2)c1` [N-(4-(3,5-Dimethylphenylsulfamoyl)phenyl)galloylamide (9k)], the IC50 came out at 2.5 µM against Gag-Pol polyprotein [1] and 8 µM against Gag-Pol polyprotein [2].
In the case of `O=C(Nc1ccc(S(=O)(=O)Nc2ccccc2Br)cc1)c1cc(O)c(O)c(O)c1` [N-(4-(2-Bromophenylsulfamoyl)phenyl)galloylamide (9g)], the IC50 against Gag-Pol polyprotein [1] is 1.4 µM; at Gag-Pol polyprotein [2], 5 µM.
With `CCCCc1ccc(NS(=O)(=O)c2ccc(NC(=O)c3cc(O)c(O)c(O)c3)cc2)cc1` [N-(4-(4-Butylphenylsulfamoyl)phenyl)galloylamide (9i)], the IC50 on Gag-Pol polyprotein [1] came to 2.5 µM; against Gag-Pol polyprotein [2] it was 3 µM.
Take `O=C(/C=C/c1ccc(O)c(O)c1)Nc1ccc(S(=O)(=O)NCCc2ccc(F)cc2)cc1` [(E)-3-(3,4-Dihydroxyphenyl)-N-(4-(4-Fluorophenethylsulfamoyl)phenyl)acrylamide (11t)]: the IC50 turned out to be 10 µM against Gag-Pol polyprotein [1] and 14 µM on Gag-Pol polyprotein [2].
`O=C(Nc1ccc(S(=O)(=O)Nc2ccc(Cl)c(Cl)c2)cc1)c1cc(O)c(O)c(O)c1` [N-(4-(3,4-Dichlorophenylsulfamoyl)phenyl)galloylamide (9h)]: the IC50 worked out at 1.7 µM against Gag-Pol polyprotein [1] and 5 µM at Gag-Pol polyprotein [2].
On to `O=C(/C=C/c1ccc(O)c(O)c1)Nc1ccc(S(=O)(=O)Nc2ccc(F)c(Cl)c2)cc1` [(E)-3-(3,4-Dihydroxyphenyl)-N-(4-(3-chloro-4-fluorophenylsulfamoyl)phenyl)acrylamide (11v)], for which the IC50 against Gag-Pol polyprotein [1] is 4 µM; against Gag-Pol polyprotein [2], 8 µM.
Consider `O=C(Nc1ccc(S(=O)(=O)Nc2cccc(Br)c2)cc1)c1ccc(O)c(O)c1` [N-(4-(3-Bromophenylsulfamoyl)phenyl)3,4-dihydroxybenzamide (11x)], for which the IC50 at Gag-Pol polyprotein [1] was 15 µM; on Gag-Pol polyprotein [2] it was 45 µM.
As to `O=C(Nc1ccc(S(=O)(=O)NCc2ccc(Cl)cc2)cc1)c1cc(O)c(O)c(O)c1` [N-(4-(4-Chlorobenzylsulfamoyl)phenyl)galloylamide (9o)], the values for the IC50 against Gag-Pol polyprotein [1] and on Gag-Pol polyprotein [2] were 2 µM and 5 µM, respectively.
`O=C(Nc1ccc(S(=O)(=O)Nc2ccccc2)cc1)c1cc(O)c(O)c(O)c1` [N-(4-Phenylsulfamoylphenyl)galloylamide (9m)]: the IC50 at Gag-Pol polyprotein [1] turned out to be 1.5 µM; against Gag-Pol polyprotein [2] it was 7 µM.
On to `O=C(/C=C/c1ccc(O)c(O)c1)Nc1ccc(S(=O)(=O)Nc2ccccc2)cc1` [(E)-3-(3,4-Dihydroxyphenyl)-N-(4-phenylsulfamoylphenyl)acrylamide (11m)], for which the IC50 against Gag-Pol polyprotein [1] was 12 µM; at Gag-Pol polyprotein [2], 16 µM.
For the compound `CC(=O)Oc1ccc(/C=C/C(=O)Nc2ccc(S(=O)(=O)Nc3cccc(Cl)c3F)cc2)cc1OC(C)=O` [(E)-3-(3,4-Diacetoxyphenyl)-N-(4-(3-chloro-2-fluorophenylsulfamoyl)phenyl)acrylamide (10l)], the values for the IC50 against Gag-Pol polyprotein [1] and on Gag-Pol polyprotein [2] were 13 µM and 50 µM, respectively.
For `CC(=O)Oc1cc(C(=O)Nc2ccc(S(=O)(=O)Nc3ccccc3)cc2)cc(OC(C)=O)c1OC(C)=O` [N-(4-Phenylsulfamoylphenyl)-3,4,5-triacetoxybenzamide (8m)], the IC50 against Gag-Pol polyprotein [1] is 1.6 µM; on Gag-Pol polyprotein [2] it was 8 µM.
In the case of `O=C(/C=C/c1ccc(O)c(O)c1)Nc1ccc(S(=O)(=O)NCc2ccc(F)cc2)cc1` [(E)-3-(3,4-Dihydroxyphenyl)-N-(4-(4-Fluorobenzylsulfamoyl)phenyl)acrylamide (11d)], the figures for the IC50 against Gag-Pol polyprotein [1] and against Gag-Pol polyprotein [2] were 9 µM and 24 µM, respectively.
`O=C(Nc1ccc(S(=O)(=O)Nc2ccc(Cl)cc2)cc1)c1cc(O)c(O)c(O)c1` [N-(4-(4-Chlorophenylsulfamoyl)phenyl)galloylamide (9n)]: the values for the IC50 against Gag-Pol polyprotein [1] and on Gag-Pol polyprotein [2] were 2 µM and 6 µM, respectively.
In the same order, the values of `CC(=O)Oc1ccc(/C=C/C(=O)Nc2ccc(S(=O)(=O)Nc3ccc(F)c(F)c3)cc2)cc1OC(C)=O` [(E)-3-(3,4-Diacetoxyphenyl)-N-(4-(3,4-Difluorophenylsulfamoyl)phenyl)acrylamide (10b)] are 11 µM and 60 µM.
For the compound `Cc1ccccc1NS(=O)(=O)c1ccc(NC(=O)c2cc(O)c(O)c(O)c2)cc1` [N-(4-(2-Methylphenylsulfamoyl)phenyl)galloylamide (9s)], the IC50 is 2 µM against Gag-Pol polyprotein [1] and 7 µM against Gag-Pol polyprotein [2].
As for `CC(=O)Oc1cc(C(=O)Nc2ccc(S(=O)(=O)Nc3cccc(Cl)c3F)cc2)cc(OC(C)=O)c1OC(C)=O` [N-(4-(3-chloro-2-fluorophenylsulfamoyl)phenyl)-3,4,5-triacetoxybenzamide (8l)], the results for the IC50 at Gag-Pol polyprotein [1] and against Gag-Pol polyprotein [2] were 2 µM and 5 µM, respectively.
In the same order, the values of `CC(=O)Oc1cc(C(=O)Nc2ccc(S(=O)(=O)Nc3ccccc3Br)cc2)cc(OC(C)=O)c1OC(C)=O` [N-(4-(2-Bromophenylsulfamoyl)phenyl)-3,4,5-triacetoxybenzamide (8g)] are 3 µM and 12 µM.
On to `O=C(Nc1ccc(S(=O)(=O)Nc2ccccc2)cc1)c1ccc(O)c(O)c1` [N-(4-phenylsulfamoylphenyl)3,4-dihydroxybenzamidebenzamide (11w)], for which the IC50 was 50 µM against Gag-Pol polyprotein [1] and 100 µM against Gag-Pol polyprotein [2].

In general, IC50 refers to the midpoint of a concentration-inhibition curve. A low value points to higher potency.
